PubChem BioAssay AID256 (DTP/NCI, 2004)
Values joined by “and” are separate entries in the source; they are usually repeats but may differ in a detail not shown here. Identical values can stand only once. Inconclusive results and toxic doses are left out.

Test system: CD2F1 mice, L1210 leukemia ip, survival T/C
Experiment: NCI In Vivo Anticancer Drug Screen. Data for tumor model L1210 Leukemia (intraperitoneal) in CD2F1 (CDF1) mice
Details: higher = longer survival
In short: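 Each value reflects a quotient of treated over vehicle control outcomes in mice with a transplanted tumor.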

[1] = endpoint: mean survival time, dose: 12.5 mg/kg/injection, schedule: Q01DX009 (ip), vehicle: saline with Tween-80
[2] = endpoint: mean survival time, dose: 25.0 mg/kg/injection, schedule: Q01DX009 (ip), vehicle: saline with Tween-80
[3] = endpoint: mean survival time, dose: 50.0 mg/kg/injection, schedule: Q01DX009 (ip), vehicle: saline with Tween-80
[4] = endpoint: mean survival time, dose: 100.0 mg/kg/injection, schedule: Q04DX003 (ip), vehicle: saline with Tween-80
[5] = endpoint: mean survival time, dose: 200.0 mg/kg/injection, schedule: Q04DX003 (ip), vehicle: saline with Tween-80
[6] = endpoint: mean survival time, dose: 400.0 mg/kg/injection, schedule: Q04DX003 (ip), vehicle: saline with Tween-80
[7] = endpoint: mean survival time, dose: 100.0 mg/kg/injection, schedule: Q01DX001 (ip), vehicle: saline
[8] = endpoint: mean survival time, dose: 100.0 mg/kg/injection, schedule: Q04DX003 (ip), vehicle: saline
[9] = endpoint: mean survival time, dose: 200.0 mg/kg/injection, schedule: Q01DX001 (ip), vehicle: saline
[10] = endpoint: mean survival time, dose: 200.0 mg/kg/injection, schedule: Q04DX003 (ip), vehicle: saline
[11] = endpoint: mean survival time, dose: 400.0 mg/kg/injection, schedule: Q01DX001 (ip), vehicle: saline

Question: Which T/C (endpoint: mean survival time, dose: 6.25 mg/kg/injection, schedule: Q01DX009 (ip), vehicle: saline with Tween-80) does the source give for `CN(C)N=Nc1ccc(NC(N)=O)cc1` here?
Answer: Its T/C is 108 % of control.

Question: And the T/C (endpoint: mean survival time, dose: 6.25 mg/kg/injection, schedule: Q01DX009 (ip), vehicle: saline)?
Answer: Its T/C is 118 % of control.

Question: And the T/C [1]?
Answer: The T/C was 113 % of control.

Question: What about the T/C (endpoint: mean survival time, dose: 12.5 mg/kg/injection, schedule: Q01DX009 (ip), vehicle: saline) of the same molecule?
Answer: Its T/C is 111 % of control.

Question: And the T/C [2]?
Answer: The T/C was 118 % of control.

Question: What about the T/C (endpoint: mean survival time, dose: 37.5 mg/kg/injection, schedule: Q01DX009 (ip), vehicle: Klucel (hydroxypropylcellulose) (HPC)) of the same molecule?
Answer: Its T/C is 158 % of control.

Question: What about the T/C [3] of the same molecule?
Answer: The T/C was 159 % of control.

Question: How did the T/C (endpoint: mean survival time, dose: 100.0 mg/kg/injection, schedule: Q04DX003 (ip), vehicle: Klucel (hydroxypropylcellulose) (HPC)) turn out when `CC(=O)CC(OC(=O)c1cc([N+](=O)[O-])cc([N+](=O)[O-])c1)(C(F)(F)F)C(F)(F)F` was run?
Answer: The T/C was 91 % of control.

Question: Which results are given for `O=[N+]([O-])C1(Br)C(c2ccccc2)C=CC(c2ccccc2)C1c1ccccc1` (stereo not given)?
Answer: T/C [4]: 95 % of control; T/C [5]: 95 % of control; T/C [6]: 91 % of control

Question: How did the T/C (endpoint: mean survival time, dose: 50.0 mg/kg/injection, schedule: Q01DX001 (ip), vehicle: saline) turn out when `COc1cc(C=O)cc(O)c1O` was run?
Answer: The T/C was 94 % of control.

Question: What about the T/C [7] of the same molecule?
Answer: The T/C was 96 % of control.

Question: And the T/C [8]?
Answer: The T/C was 95 % of control.

Question: What about the T/C [9] of the same molecule?
Answer: Its T/C is 91 % of control.

Question: What about the T/C [10] of the same molecule?
Answer: Its T/C is 92 % of control.

Question: What about the T/C [11] of the same molecule?
Answer: Its T/C is 89 % of control.

Question: And the T/C (endpoint: mean survival time, dose: 400.0 mg/kg/injection, schedule: Q04DX003 (ip), vehicle: saline)?
Answer: Its T/C is 92 % of control.

Question: For `CC1(C)CCOC1=O`, which T/C [7] is on record?
Answer: The T/C was 105 % of control.

Question: And the T/C [9]?
Answer: Its T/C is 103 % of control.

Question: And the T/C [11]?
Answer: Its T/C is 103 % of control.

Question: Which results are given for `COc1cc(/C=N/NC(=O)c2ccccc2)ccc1O`?
Answer: T/C (endpoint: mean survival time, dose: 100.0 mg/kg/injection, schedule: Q01DX009 (ip), vehicle: Klucel (hydroxypropylcellulose) (HPC)): 97 % of control; T/C (endpoint: mean survival time, dose: 200.0 mg/kg/injection, schedule: Q01DX009 (ip), vehicle: Klucel (hydroxypropylcellulose) (HPC)): 97 % of control; T/C (endpoint: mean survival time, dose: 400.0 mg/kg/injection, schedule: Q01DX009 (ip), vehicle: Klucel (hydroxypropylcellulose) (HPC)): 97 % of control

Question: For `COc1ccccc1N/N=C1/CCCNC1=O`, which T/C (endpoint: mean survival time, dose: 100.0 mg/kg/injection, schedule: Q01DX009 (ip), vehicle: saline with Tween-80) is on record?
Answer: The T/C was 98 % of control.

Question: And the T/C (endpoint: mean survival time, dose: 200.0 mg/kg/injection, schedule: Q01DX009 (ip), vehicle: saline with Tween-80)?
Answer: The T/C was 101 % of control.

Question: And the T/C (endpoint: mean survival time, dose: 400.0 mg/kg/injection, schedule: Q01DX009 (ip), vehicle: saline with Tween-80)?
Answer: Its T/C is 95 % of control.

Question: Which T/C (endpoint: mean survival time, dose: 12.5 mg/kg/injection, schedule: Q04DX002 (ip), vehicle: saline) does the source give for `OC1CCN(c2c3ccccc3nc3ccccc23)CC1` here?
Answer: Its T/C is 100 % of control.

Question: And the T/C (endpoint: mean survival time, dose: 25.0 mg/kg/injection, schedule: Q04DX002 (ip), vehicle: saline)?
Answer: Its T/C is 100 % of control.

Question: And the T/C (endpoint: mean survival time, dose: 50.0 mg/kg/injection, schedule: Q04DX002 (ip), vehicle: saline)?
Answer: The T/C was 116 % of control.

Question: With `Nc1ccc(CC(=O)Nc2ccc(S(=O)(=O)F)cc2)cc1` as the molecule, how does the T/C [7] read?
Answer: Its T/C is 102 % of control.

Question: What about the T/C [9] of the same molecule?
Answer: Its T/C is 103 % of control.

Question: What about the T/C [11] of the same molecule?
Answer: Its T/C is 105 % of control.

Question: `Cc1ccc(NC(=O)c2ccc(Cl)cc2)c(Br)c1` was tested. Which T/C [4] did it give?
Answer: Its T/C is 103 % of control.

Question: What about the T/C [5] of the same molecule?
Answer: Its T/C is 105 % of control.

Question: What about the T/C [6] of the same molecule?
Answer: Its T/C is 97 % of control.

Question: Which T/C [4] does the source give for `CCN(C(=O)Nc1ccccc1OC)c1ccccc1` here?
Answer: Its T/C is 98 % of control.

Question: What about the T/C [5] of the same molecule?
Answer: The T/C was 98 % of control.

Question: What about the T/C [6] of the same molecule?
Answer: Its T/C is 93 % of control.

Question: `CCOC(=O)Nc1cc2c(c(N)n1)N=C(c1ccccc1)CN2` was tested. Which T/C (endpoint: median survival time, dose: 0.63 mg/kg/injection, schedule: Q01DX009 (ip), vehicle: saline with Tween-80) did it give?
Answer: The T/C was 118 % of control and 101 % of control.

Question: What about the T/C (endpoint: median survival time, dose: 0.75 mg/kg/injection, schedule: Q01DX009 (ip), vehicle: saline with Tween-80) of the same molecule?
Answer: The T/C was 106 % of control.

Question: What does the source list for `O=S(=O)(Cl)OC1C2COC(O2)C(OS(=O)(=O)Cl)C1OS(=O)(=O)Cl` (stereo not given)?
Answer: T/C [1]: 108 % of control; T/C [2]: 103 % of control; T/C [3]: 102 % of control

Question: Which T/C (endpoint: mean survival time, dose: 6.25 mg/kg/injection, schedule: Q01DX009 (ip), vehicle: water) does the source give for `C[n+]1c2ccccc2c(Nc2ccc(NS(=O)(=O)CCCCN=C(N)N)cc2)c2ccc(N)cc21` here?
Answer: The T/C was 314 % of control.

Question: How did the T/C [4] turn out when `Cc1ccc(C(=O)c2ccc([N+](=O)[O-])cc2)cc1` was run?
Answer: Its T/C is 94 % of control.

Question: What about the T/C [5] of the same molecule?
Answer: Its T/C is 94 % of control.

Question: How did the T/C [4] turn out when `NCCc1ccccn1` was run?
Answer: The T/C was 96 % of control.

Question: What about the T/C [5] of the same molecule?
Answer: The T/C was 101 % of control.

Question: How did the T/C (endpoint: mean survival time, dose: 37.5 mg/kg/injection, schedule: Q01DX009 (ip), vehicle: saline) turn out when `COc1ccc(C(=O)/C=C/c2ccc(O)cc2)cc1` was run?
Answer: Its T/C is 98 % of control.

Question: And the T/C (endpoint: mean survival time, dose: 75.0 mg/kg/injection, schedule: Q01DX009 (ip), vehicle: saline)?
Answer: Its T/C is 102 % of control.

Question: And the T/C (endpoint: mean survival time, dose: 150.0 mg/kg/injection, schedule: Q01DX009 (ip), vehicle: saline)?
Answer: The T/C was 98 % of control.

Question: With `O=CN(/C=C1\CC(OO)NC1=O)Cc1ccccc1` (stereo not given) as the molecule, how does the T/C (endpoint: mean survival time, dose: 75.0 mg/kg/injection, schedule: Q01DX001 (ip), vehicle: saline) read?
Answer: The T/C was 102 % of control.

Question: And the T/C (endpoint: mean survival time, dose: 150.0 mg/kg/injection, schedule: Q01DX001 (ip), vehicle: saline)?
Answer: Its T/C is 108 % of control.

Question: Which results are given for `Cc1noc2c1ncc[n+]2[O-]`?
Answer: T/C (endpoint: mean survival time, dose: 5.0 mg/kg/injection, schedule: Q04DX003 (ip), vehicle: saline): 101 % of control; T/C (endpoint: mean survival time, dose: 10.0 mg/kg/injection, schedule: Q04DX003 (ip), vehicle: saline): 101 % of control; T/C (endpoint: mean survival time, dose: 20.0 mg/kg/injection, schedule: Q04DX003 (ip), vehicle: saline): 100 % of control

Question: `CCOC(=O)CCN(CC)CC` was tested. Which T/C (endpoint: mean survival time, dose: 100.0 mg/kg/injection, schedule: Q01DX009 (ip), vehicle: saline) did it give?
Answer: The T/C was 106 % of control.

Question: And the T/C (endpoint: mean survival time, dose: 200.0 mg/kg/injection, schedule: Q01DX009 (ip), vehicle: saline)?
Answer: The T/C was 97 % of control.

Question: What about the T/C (endpoint: mean survival time, dose: 400.0 mg/kg/injection, schedule: Q01DX009 (ip), vehicle: saline) of the same molecule?
Answer: The T/C was 97 % of control.

Question: Which T/C (endpoint: mean survival time, dose: 50.0 mg/kg/injection, schedule: Q04DX003 (ip), vehicle: saline with Tween-80) does the source give for `C/C=C(\C)c1cc(=O)c2c(C)cc3c(c2o1)C(OC)(OC(C)=O)c1c(O)c(C2CC(C)(N(C)C)C(OC(C)=O)C(C)O2)cc(C2CC(N(C)C)C(OC(C)=O)C(C)O2)c1C3=O` (stereo not given) here?
Answer: The T/C was 112 % of control.

Question: What about the T/C [4] of the same molecule?
Answer: Its T/C is 110 % of control.

Question: And the T/C [8]?
Answer: The T/C was 109 % of control.

Question: And the T/C [5]?
Answer: Its T/C is 97 % of control.

Question: And the T/C [10]?
Answer: Its T/C is 91 % of control.
